Values quoted from earlier work in US20030072802A1, “Sustained release topiramate” (R.T. Alamo Ventures, Inc., priority 2001, published 2003).

Key:
[1] = tested on: state-dependent sodium channel (cultured neurons)
[2] = tested on: kainate/AMPA subtype of excitatory amino acid (glutamate) receptor
[3] = formulations currently in use; after a 200 mg dose

half life of plasma concentration [3]: about 21 hours
time of peak topiramate plasma concentration [3]: about 2 hours
effect on the activity of NMDA at the NMDA receptor subtype (NMDA receptor subtype): no apparent effect
effect on the frequency at which GABA activates GABAA receptors (GABAA receptors): increases the frequency
sensitivity of the GABA-potentiating effect to flumazenil (benzodiazepine antagonist) (GABAA receptors): not blocked by flumazenil
SMILES: CC1(C)OC2COC3(COS(N)(=O)=O)OC(C)(C)OC3C2O1 [topiramate, 2,3:4,5-bis-Q-(1-methylethylidene)-p-D-fructopyranose sulfamate]
effect on action potentials elicited repetitively by sustained depolarization [1]: blocked by topiramate in a time-dependent manner
effect on the ability of kainate to activate the kainate/AMPA receptor [2]: antagonizes the ability of kainate to activate
effect on GABA-induced flux of chloride ions into neurons (GABAA receptors): enhances the ability of GABA to induce a flux of chloride ions into neurons
effect on the duration of the channel open time (GABAA receptors): nor did topiramate increase the duration of the channel open time
